Several values for one entry are separate records, joined by “and”; a condition that tells them apart may be missing. Equal entries are not always repeated.
What was measured:
[1] = system: p-CREB (phosphorylated cAMP response-element binding protein) in human whole blood; experiment: p-CREB assay in human whole blood by flow cytometry (NECA stimulation, CD4 staining); format: cell-based; conditions: Homo sapiens
Procedure: Assay protocol for p-CREB (phosphorylated cAMP response-element binding protein) in human whole blood by flow cytometry
Fresh human whole blood (Biological Specialty Corporation) was added at 100 ul per wellinto a 96-well plate and treated with test compounds (Serial dilutions of 1:3 with starting concentration at 30 uM, 11 concentrations total, in the presence of adenosine deaminase) for one hour at room temperature on a plate shaker. Then 10 ul of 10× NECA (50 uM stock in PBS) and 10 ul of 10 × Rolipram (50 uM stock in PBS) were added, with designated wells for unstimulated (Rolipram+DMSO) and stimulated (Rolipram+NECA+DMSO) conditions. The plates were mixed well and incubated at room temperature for 30 min on a plate shaker. 1× lyse/Fix buffer (5× stock, BD #558049) was warmed to 37° in a water bath. 1200 ul of pre-warmed 1× lyse/Fix buffer was then added to the plate, which was then sealed and mixed by inverting the plate a few times. The plate was then incubated for 30 min at 37° in a water bath. After incubation, the plate was centrifuged at 1600 rpm for 5 min and the supernatant was decanted, then 1200 ul PBS was added and the plate was mixed by inverting a few times followed by centrifuging at 1600 rpm for 5 min and again decanting the supernatant. Then, 200 ul FIX PERM buffer II (BD #558052) was added and the plate was mixed well, then kept on ice for 45 min After spinning the plate at 1600 rpm for 5 min the supernatant was again decanted. Then was added 200 ul staining buffer (BD #554657), and the plate was mixed well and spun at 1600 rpm for 5 min, then the supernatant was again decanted. 200 ul staining buffer was added, the plate was mixed well and the plate was sealed at this step for storage at 4° overnight or until staining. Before staining, the plate was spun at 1600 rpm for 5 min and the supernatant was again decanted. Antibody mix in staining buffer was prepared (75 ul/well, 1:50 dilution for p-CREB antibody from Cell Signaling Tech #14001S, 1:200 dilution for CD4 antibody from BD #566320) and the cells were resuspended in the above antibody mix solution. After mixing well, the plate was incubated (shielded from light) at room temperature for two hours on a plate shaker. It was then spun at 1600 rpm for 5 min and the supernatant was decanted. 200 ul staining buffer was then added to wash cells, and the plate was then mixed by shaking or pipetting. The wash step was repeated at least one more time, and after the final wash, cells were resusptended in 200 ul staining buffer in U bottom plate for flow cytometry analysis.

Adenosine A2A receptor [2] = target: T1, Adenosine A2A receptor (Homo sapiens, UniProt P29274); experiment: cAMP assay in 293A cells stably expressing the adenosine A2A receptor (CGS21680 stimulation, HTRF); format: cell-based; design: expressed in transfected cells; host or cells: 293A cells (Invitrogen, Cat# R705-07) infected with A2A-expressing lentivirus (custom packaged by Biosettia), puromycin selected; conditions: 293A-A2AR cells, 0.1% BSA
T1 sequence (P29274 whole entry): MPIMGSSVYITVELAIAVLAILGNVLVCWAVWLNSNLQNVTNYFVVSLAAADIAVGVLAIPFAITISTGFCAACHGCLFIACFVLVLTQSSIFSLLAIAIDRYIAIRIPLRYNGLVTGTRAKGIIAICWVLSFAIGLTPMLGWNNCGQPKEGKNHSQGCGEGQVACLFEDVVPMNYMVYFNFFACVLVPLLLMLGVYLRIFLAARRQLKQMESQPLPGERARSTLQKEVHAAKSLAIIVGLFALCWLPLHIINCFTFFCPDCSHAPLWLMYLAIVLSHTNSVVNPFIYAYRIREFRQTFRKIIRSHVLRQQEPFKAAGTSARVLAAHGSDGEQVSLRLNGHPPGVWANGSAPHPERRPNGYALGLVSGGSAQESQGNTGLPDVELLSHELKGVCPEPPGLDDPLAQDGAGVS

Adenosine A2A receptor [3] = target: T1, Adenosine A2A receptor; experiment: Adenosine A2A receptor competitive binding assay (Tag-lite HTRF); conditions: Tag-lite adenosine A2A receptor ligand binding, HTRF
Outline: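 Tag-lite HTRF competition: donor-labelled cells expressing human A2A were mixed with serially diluted compounds (DMSO 0.6% in dilutions) and red fluorescent A2A antagonist ligand (60 nM stock). Incubated 2 h at room temperature before HTRF readout.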

[4] = 1 uM CGS, read-out: cAMP (nM) 0.1% BSA, 1 uM CGS
[5] = 8 nM CGS, read-out: cAMP (nM) 0.1% BSA, 8 nM CGS

Row | SMILES | IC50 (Adenosine A2A receptor [2]; [4]) | IC50 (Adenosine A2A receptor [3]) | IC50 (Adenosine A2A receptor [2]; [5]) | other results
1 | CCN(CC)C(=O)COc1nc(N)nc(-c2ccccc2)c1-c1cc(C)nc(C(F)(F)F)c1 [Example 3, 2-((2-amino-5-(2-methyl-6-(trifluoromethyl)pyridin-4-yl)-6-phenylpyrimidin-4-yl)oxy)-N,N-diethylacetamide] | – | – | – | IC50 ([1]; values separated by / are repeat determinations): 47 nM; IC50 (Adenosine A2A receptor [2]; 8 nM CGS, values separated by / are repeat determinations, read-out: cAMP (nM) 0.1% BSA, 8 nM CGS): 0.6 nM; IC50 (Adenosine A2A receptor [2]; 1 uM CGS, values separated by / are repeat determinations, read-out: cAMP (nM) 0.1% BSA, 1 uM CGS): 69 nM and 24 nM
2 | Cc1cc(-c2c(OCc3nccn3CC(C)C(=O)O)nc(N)nc2-c2ccc(F)cc2)cc(C(F)F)n1 (stereo not shown) [Example 207, 3-(2-(((2-amino-5-(2-(difluoromethyl)-6-methylpyridin-4-yl)-6-(4-fluorophenyl)pyrimidin-4-yl)oxy)methyl)-1H-imidazol-1-yl)-2-methylpropanoic acid] | – | 28 nM | 29 nM | –
3 | Cc1cc(-c2c(OCc3cn(C(C)C)nn3)nc(N)nc2-c2ccc(F)cc2)cc(C(F)F)n1 [Example 208, 5-(2-(difluoromethyl)-6-methylpyridin-4-yl)-4-(4-fluorophenyl)-6-((1-isopropyl-1H-1,2,3-triazol-4-yl)methoxy)pyrimidin-2-amine] | 394 nM | 3.4 nM | 1.4 nM and 1 nM | –
4 | Cc1cc(-c2c(OCc3nccn3C3CC(O)C3)nc(N)nc2-c2ccc(F)cc2)cc(C(F)F)n1 (stereo not shown) [Example 210, 3-(2-(((2-amino-5-(2-(difluoromethyl)-6-methylpyridin-4-yl)-6-(4-fluorophenyl)pyrimidin-4-yl)oxy)methyl)-1H-imidazol-1-yl)cyclobutan-1-ol] | 2250 nM | 3.4 nM and 5.4 nM | 3.7 nM and 5.4 nM | –
5 | Cc1cc(-c2c(OCc3nc(S(C)(=O)=O)cn3C(C)C)nc(N)nc2-c2ccc(F)cc2)cc(C(F)F)n1 [Example 211, 5-(2-(difluoromethyl)-6-methylpyridin-4-yl)-4-(4-fluorophenyl)-6-((1-isopropyl-4-(methylsulfonyl)-1H-imidazol-2-yl)methoxy)pyrimidin-2-amine] | – | 47 nM | 7.3 nM | –
6 | Cc1cc(-c2c(OCCOc3ccnc(N(C)CCO)c3)nc(N)nc2-c2ccc(F)cc2)cc(C(F)F)n1 [Example 212, 2-((4-(2-((2-amino-5-(2-(difluoromethyl)-6-methylpyridin-4-yl)-6-(4-fluorophenyl)pyrimidin-4-yl)oxy)ethoxy)pyridin-2-yl)(methyl)amino)ethan-1-ol] | – | 174 nM | 62 nM | –
7 | Cc1cc(-c2c(OCCOc3cccc(N(C)CCO)n3)nc(N)nc2-c2ccc(F)cc2)cc(C(F)F)n1 [Example 213, 2-((6-(2-((2-amino-5-(2-(difluoromethyl)-6-methylpyridin-4-yl)-6-(4-fluorophenyl)pyrimidin-4-yl)oxy)ethoxy)pyridin-2-yl)(methyl)amino)ethan-1-ol] | 7.16 nM | 9.3 nM | 3.4 nM | –
8 | Cc1cc(-c2c(OCc3ccn(CC4CC4)n3)nc(N)nc2-c2ccc(F)cc2)cc(C(F)F)n1 [Example 214] | 327 nM | 4.5 nM | – | –
9 | Cc1cc(-c2c(OCc3nccn3CS(C)(=O)=O)nc(N)nc2-c2ccc(F)cc2)cc(C(F)F)n1 [Example 215, 5-(2-(difluoromethyl)-6-methylpyridin-4-yl)-4-(4-fluorophenyl)-6-((1-((methylsulfonyl)methyl)-1H-imidazol-2-yl)methoxy)pyrimidin-2-amine] | 965 nM | 9.7 nM | – | –
10 | Cc1cc(-c2c(OCc3ccc(C(C)(C)O)cn3)nc(N)nc2-c2ccc(F)cc2)cc(C(F)F)n1 [Example 217, 2-(6-(((2-amino-5-(2-(difluoromethyl)-6-methylpyridin-4-yl)-6-(4-fluorophenyl)pyrimidin-4-yl)oxy)methyl)pyridin-3-yl)propan-2-ol] | 6500 nM | 21 nM | – | –
11 | Cc1cc(-c2c(OCc3ccnc(N4CC(C)(O)C4)n3)nc(N)nc2-c2ccc(F)cc2)cc(C(F)F)n1 [Example 266, 1-(4-(((2-amino-5-(2-(difluoromethyl)-6-methylpyridin-4-yl)-6-(4-fluorophenyl)pyrimidin-4-yl)oxy)methyl)pyrimidin-2-yl)-3-methylazetidin-3-ol] | – | – | – | IC50 [1]: 4910 nM
12 | Cc1cc(-c2c(OCc3ccn(CC(C)(C)C(=O)O)n3)nc(N)nc2-c2ccc(F)cc2)cc(C(F)F)n1 [Example 267, 3-(3-(((2-amino-5-(2-(difluoromethyl)-6-methylpyridin-4-yl)-6-(4-fluorophenyl)pyrimidin-4-yl)oxy)methyl)-1H-pyrazol-1-yl)-2,2-dimethylpropanoic acid] | – | – | – | IC50 [1]: 5580 nM

Continued, in another order:

Row | IC50 (Adenosine A2A receptor [2]; [4]) | IC50 (Adenosine A2A receptor [3]) | IC50 (Adenosine A2A receptor [2]; [5]) | SMILES | other results
13 | 1240 nM | – | – | Cc1cc(-c2c(OCc3cccc([C@@H]4C[C@H]4C(=O)O)n3)nc(N)nc2-c2ccc(F)cc2)cc(C(F)F)n1 (relative stereo) [Example 353, (1,2-trans)-2-(6-(((2-amino-5-(2-(difluoromethyl)-6-methylpyridin-4-yl)-6-(4-fluorophenyl)pyrimidin-4-yl)oxy)methyl)pyridin-2-yl)cyclopropane-1-carboxylic acid] | IC50 [1]: 374 nM
14 | 563 nM and 977 nM | – | – | Cc1cc(-c2c(OCc3cccc([C@@H]4C[C@@H]4C(=O)O)n3)nc(N)nc2-c2ccc(F)cc2)cc(C(F)F)n1 (relative stereo) [Example 354, (1,2-cis)-2-(6-(((2-amino-5-(2-(difluoromethyl)-6-methylpyridin-4-yl)-6-(4-fluorophenyl)pyrimidin-4-yl)oxy)methyl)pyridin-2-yl)cyclopropane-1-carboxylic acid] | IC50 [1]: 549 nM
15 | 76 nM and 48 nM | 1.7 nM | – | Cc1cc(-c2c(OCc3ccncn3)nc(N)nc2-c2ccc(F)cc2)cc(C(F)F)n1 [Example 218, 5-(2-(difluoromethyl)-6-methylpyridin-4-yl)-4-(4-fluorophenyl)-6-(pyrimidin-4-ylmethoxy)pyrimidin-2-amine] | –
16 | 444 nM | 24 nM | – | CCn1cnc(COc2nc(N)nc(-c3ccc(F)cc3)c2-c2cc(C)nc(C(F)F)c2)n1 [Example 221, 5-(2-(difluoromethyl)-6-methyipyridin-4-yl)-4-((1-ethyl-1H-1,2,4-triazol-3-yl)methoxy)-6-(4-fluorophenyl)pyrimidin-2-amine] | –
17 | 788 nM | 4.1 nM | – | Cc1cc(-c2c(OCc3cccnn3)nc(N)nc2-c2ccc(F)cc2)cc(C(F)F)n1 [Example 223, 5-(2-(difluoromethyl)-6-methylpyridin-4-yl)-4-(4-fluorophenyl)-6-(pyridazin-3-ylmethoxy)pyrimidin-2-amine] | –
18 | 1320 nM | 9.5 nM | – | Cc1cc(-c2c(OCc3cc(C(C)(C)O)ccn3)nc(N)nc2-c2ccc(F)cc2)cc(C(F)F)n1 [Example 224, 2-(2-(((2-amino-5-(2-(difluoromethyl)-6-methylpyridin-4-yl)-6-(4-fluorophenyl)pyrimidin-4-yl)oxy)methyl)pyridin-4-yl)propan-2-ol] | –
19 | 162 nM | 2.5 nM and 3.6 nM | 0.9 nM | CCn1ccc(COc2nc(N)nc(-c3ccc(F)cc3)c2-c2cc(C)nc(C(F)F)c2)n1 [Example 228, 5-(2-(difluoromethyl)-6-methylpyridin-4-yl)-4-((1-ethyl-1H-pyrazol-3-yl)methoxy)-6-(4-fluorophenyl)pyrimidin-2-amine] | –
20 | 175 nM and 69 nM and 201 nM | 7.4 nM | – | CCn1nnnc1COc1nc(N)nc(-c2ccc(F)cc2)c1-c1cc(C)nc(C(F)F)c1 [Example 295, 5-(2-(difluoromethyl)-6-methylpyridin-4-yl)-4-((1-ethyl-1H-tetrazol-5-yl)methoxy)-6-(4-fluorophenyl)pyrimidin-2-amine] | –
